Experimental data from patent publication US7417109B2, “Polymers for delivering nitric oxide in vivo” (Duke University, priority 1996, dated 2008).

Legend:
[1] = Half-life and NO delivery in physiological solution (NO by method of Saville); format: physicochemical
Procedure: In addition, the half-lives for these compositions in physiological solution were measured. The half-life is time required for the composition to lose one half of its bound NO. The amount of NO in the composition is determined by the method of Saville, as described in Example 13.
The concentration of R—S—NO groups in a sample is based on the method reported in Saville, Analyst 83:620 (1958). By this method, R—S—NO groups are converted into an azo dye. The concentration of this dye is determined by measuring the absorbance at 540 nm (ε˜50,000 M^−1 cm^−1). The procedure is as follows:
A given volume (50 μl−1 m) of the sample to be assayed is added to an equivalent volume of solution A and solution B. The two samples are set aside for 5 minutes to allow formation of the diazonium salt, after which an equivalent volume of solution C is added to each mixture. Color formation, indicative of the azo dye product, is usually complete by 5 minutes. The sample absorbance is then read spectrophotometrically at 540 nm. The RSNO is quantified as the difference in absorbance between solution B and A. (i.e. B−A). In the event that the background nitrite concentration is high (i.e. increased background in A), the accuracy of the measurement can be increased by the addition of an equivalent volume of 0.5% ammonium sulfamate in acid (45 mM) 5 minutes prior to the addition of sulfanilamide. […]

[2] = cited from earlier work

| Structure (SMILES) | time able to deliver NO [1] | lifetime in physiological solution [2] |
| --- | --- | --- |
| CC(C)(SN=O)[C@H](N)C(=O)O [S-nitroso-penicillamine] | no more than one | – |
| N[C@@H](CSN=O)C(=O)O [S-nitrosocysteine] | – | no more than about an hour |
| CC(C)(SN=O)C(N)C(=O)O (racemic) [S-nitroso-D,L-penicillamine] | – | no more than about an hour |
